pIC50: −log10 of the molar value.
What was measured:
Format in all cases: biochemical
MMP-13 = target: T1, MMP-13 (Homo sapiens, UniProt P45452); experiment: Assay for inhibitory activities on MMPs (fluorogenic peptide substrate), MMP-13
T1 construct: catalytic domain (^104Tyr˜^267Gly) was amplified with RT-PCR; His-tag; enterokinase digestion-site
Description: In regard to MMP-13, mRNA was prepared from carcinoma cell SW1353 derived from human cartilage stimulate by IL-1 and TNF, and catalytic domain (^[…]) was amplified with RT-PCR. This was cloned in Escherichia coli expression vector […] inserted with His-tag sequence and enterokinase digestion-site, induced and expressed by IPTG (Isopropyl-β-D-thiogalactopyranoside) and expressed in an insoluble fraction. Isolation of MMP-13 from an insoluble fraction was carried out by dissolving in modifier (6 M urea) by a usual method and purification with metal chelate chromatography (Ni […] Sepharose). And then removing modifier (6 M urea) with dialyze and refolding of the enzyme spontaneously gave activated MMP-13. The enzymatic activity on MMPs was analyzed by the method described in “C. Graham Knight, Frances Willenbrock and Gillian Murphy: A novel coumarin-labelled peptide for sensitive continuous assays of the matrix metalloproteinases: FEBS LETT., 296, (1992), 263-266”. The substrate: MOCAc-[…] was purchased from Peptide Institute, Inc., Osaka, Japan. The measurement of the inhibitory activities (IC50) was carried out by the following four methods; (A) Reaction with substrate, enzyme (MMPs) and inhibitor (B) Reaction with substrate and inhibitor, without enzyme (C) Reaction with substrate and enzyme (MMPs), without inhibitor (D) Reaction with substrate only IC50 values were calculated by using the following formula and each fluorescence values of above four methods (A to D). % inhibition={1-(A-B)/(C-D)}×100 IC50 means the concentration required to inhibit 50% of the enzyme activity. The value of inhibitory activity against MMP-2, MMP-8, MMP-9, MMP-12, and MMP-13 measured by above mentioned methods are shown in Table 25 and 26.

MMP-2 = target: T2, MMP-2 (Homo sapiens, UniProt P08253); experiment: Assay for inhibitory activities on MMPs (fluorogenic peptide substrate), MMP-2
T2 sequence (P08253 110-660): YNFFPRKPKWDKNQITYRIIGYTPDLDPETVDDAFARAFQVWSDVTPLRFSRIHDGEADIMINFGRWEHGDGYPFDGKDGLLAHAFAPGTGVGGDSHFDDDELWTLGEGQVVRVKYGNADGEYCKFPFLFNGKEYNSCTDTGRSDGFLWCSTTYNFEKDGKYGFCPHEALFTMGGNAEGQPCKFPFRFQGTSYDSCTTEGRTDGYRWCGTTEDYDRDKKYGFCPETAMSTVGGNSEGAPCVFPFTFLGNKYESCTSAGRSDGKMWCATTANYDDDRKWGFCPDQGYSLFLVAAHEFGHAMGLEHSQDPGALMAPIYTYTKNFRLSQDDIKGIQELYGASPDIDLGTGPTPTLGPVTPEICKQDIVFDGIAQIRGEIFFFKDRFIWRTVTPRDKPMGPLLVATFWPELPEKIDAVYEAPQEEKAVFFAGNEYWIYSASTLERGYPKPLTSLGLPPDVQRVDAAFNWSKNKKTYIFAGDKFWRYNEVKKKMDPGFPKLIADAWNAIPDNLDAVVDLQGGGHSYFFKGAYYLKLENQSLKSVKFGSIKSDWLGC
Description: MMP-2 was purchased from Calbiochem-Novabiochem International, Inc.
(§1) The enzymatic activity on MMPs was analyzed by the method described in “C. Graham Knight, Frances Willenbrock and Gillian Murphy: A novel coumarin-labelled peptide for sensitive continuous assays of the matrix metalloproteinases: FEBS LETT., 296, (1992), 263-266”. The substrate: MOCAc-Pro-Leu-Gly-Leu-A2Pr(DNP)-Ala-Arg-NH2 was purchased from Peptide Institute, Inc., Osaka, Japan. The measurement of the inhibitory activities (IC50) was carried out by the following four methods;
(§2) (A) Reaction with substrate, enzyme (MMPs) and inhibitor
(§3) (B) Reaction with substrate and inhibitor, without enzyme
(§4) (C) Reaction with substrate and enzyme (MMPs), without inhibitor
(§5) (D) Reaction with substrate only
(§6) IC50 values were calculated by using the following formula and each fluorescence values of above four methods (A to D).
(§7) % inhibition={1-(A−B)/(C−D)}×100
(§8) IC50 means the concentration required to inhibit 50% of the enzyme activity.
(§9) The value of inhibitory activity against MMP-2, MMP-8, MMP-9, MMP-12, and MMP-13 measured by above mentioned methods are shown in Table 25 and 26.

MMP-9 = MMP-9 (Homo sapiens, UniProt P14780); experiment: Assay for inhibitory activities on MMPs (fluorogenic peptide substrate), MMP-9
Sequence of MMP-9 (P14780 107-707): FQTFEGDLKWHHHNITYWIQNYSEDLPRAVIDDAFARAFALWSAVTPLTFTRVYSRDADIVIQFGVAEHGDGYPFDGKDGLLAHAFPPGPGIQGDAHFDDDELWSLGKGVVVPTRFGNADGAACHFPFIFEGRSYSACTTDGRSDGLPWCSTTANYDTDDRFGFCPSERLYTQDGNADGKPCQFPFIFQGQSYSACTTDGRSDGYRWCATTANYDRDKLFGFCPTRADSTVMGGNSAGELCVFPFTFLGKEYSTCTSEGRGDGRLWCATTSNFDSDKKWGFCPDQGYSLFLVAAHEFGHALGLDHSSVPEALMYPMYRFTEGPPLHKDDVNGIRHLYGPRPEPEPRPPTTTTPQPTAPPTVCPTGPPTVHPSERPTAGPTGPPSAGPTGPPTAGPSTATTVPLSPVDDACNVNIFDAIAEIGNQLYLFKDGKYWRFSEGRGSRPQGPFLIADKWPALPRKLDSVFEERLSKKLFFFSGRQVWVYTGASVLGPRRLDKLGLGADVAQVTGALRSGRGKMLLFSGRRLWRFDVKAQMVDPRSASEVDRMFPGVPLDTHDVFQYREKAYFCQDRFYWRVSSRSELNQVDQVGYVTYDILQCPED
Source text: MMP-9 was isolated and purified by the procedure of Y. Okada et al. (Yasunori Okada, Yukio Gonoji, Katsumi Naka, Katsuro Tomita, Isao Nakanishi, Kazushi Iwata, Kyoko Yamashita, and Taro Hayakawa: Matrix metalloproteinase 9 (92-kDa gelatinase/type IV collagenase) from HT1080 human fibrosarcoma cells. Purification and activation of the precursor and enzymic properties, J. Biol. Chem., 1992, 267, 21712-21719) in combination with other following methods: 1) Yasunori Okada, Tatsuhisa Morodomi, Jan J, Enghild, Ko Suzuki, Atsushi Yasui, Isao Nakanishi, Guy Salvesen and Hideaki Nagase: Matrix metalloproteinase 2 from human rheumatoid synovial fibroblasts. Purification and activation of the precursor and enzymic properties, Eur. J. Biochem., 1990, 194, 721-730; 2) Robin V Ward, Rosalind M Hembry, John J Reynolds and Gillian Murphy: The purification of tissue inhibitor of metalloproteinase-2 from its 72 kDa progelatinase complex. Biochem. J., 1991, 278, 179-187. In detail, human fibrosarcoma ATCC HT1080 cell line was cultured to confluent in Dulbecco's Modified Medium (DMEM) containing 10% fetal-calf serum at 37° C. for 48 hours. Subsequently, the medium of confluent culture was changed to serum-free DMEM medium. To obtain MMP-9, phorbol-12-myristate-13-acetate (TPA) must be added to this serum-free DMEM medium at a concentration of 50 ng/ml. The TPA-treated medium was centrifuged at 3000 rpm for 15 min, and the supernatant was concentrated to 450 ml by a Toyo-Roshi UP-20 apparatus with an ultrafiltration membrane. Then, proMMP-9 in this concentrated solution was purified by using columns of Gelatin-Sepharose and Concanavalin A-Sepharose. The pool containing proMMP-9 was dialyzed, concentrated (Toyo-Roshi UP-20) and applied to columns of Sephacryl S-200 and Green A matrix for the separation from TIMPs. The obtained proMMP-9 fraction was activated by TPCK-Trypsin (Final conc.: 3 μg/501 React Mix.).
as §1, §2, §3, §4, §5, §6, §7, §8, §9

MMP-12 = target: T3, MMP-12 (Homo sapiens, UniProt P39900); experiment: Assay for inhibitory activities on MMPs (fluorogenic peptide substrate), MMP-12
T3 construct: In regard to MMP-12, catalytic domain (^100Phe˜^263Gly) was amplified with RT-PCR; His-tag; enterokinase digestion-site
T3 sequence (P39900 100-263): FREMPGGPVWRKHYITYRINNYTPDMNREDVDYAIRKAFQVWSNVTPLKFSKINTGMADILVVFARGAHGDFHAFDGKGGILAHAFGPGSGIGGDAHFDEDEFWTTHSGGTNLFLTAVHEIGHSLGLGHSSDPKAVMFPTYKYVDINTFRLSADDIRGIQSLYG
Description: In regard to MMP-12, catalytic domain (^100Phe˜^263Gly) was amplified with RT-PCR from Human Placenta Total RNA. This was cloned in Escherichia coli expression vector pTrc99AHE inserted with His-tag sequence and enterokinase digestion-site, induced and expressed by IPTG (Isopropyl-β-D-thiogalactopyranoside) and expressed in an insoluble fraction. Isolation of MMP-12 from an insoluble fraction was carried out by dissolving in modifier (6 M urea) by a usual method and purification with metal chelate chromatography (Ni Chelateing Sepharose). And then removing modifier (6 M urea) with dialysis and refolding of the enzyme spontaneously gave activated MMP-12.
as §1, §2, §3, §4, §5, §6, §7, §8, §9

MMP-8 = target: T4, MMP-8 (Homo sapiens, UniProt P22894); experiment: Assay for inhibitory activities on MMPs (fluorogenic peptide substrate), MMP-8
T4 construct: In regard to MMP-8, catalytic domain (^99Phe˜^262Gly) was amplified with PCR; His-tag; enterokinase digestion-site
T4 sequence (P22894 99-262): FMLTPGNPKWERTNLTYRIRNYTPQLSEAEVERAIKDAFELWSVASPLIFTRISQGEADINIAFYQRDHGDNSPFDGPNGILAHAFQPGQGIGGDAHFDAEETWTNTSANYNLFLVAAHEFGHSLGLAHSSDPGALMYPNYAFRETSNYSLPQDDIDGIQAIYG
Source text: In regard to MMP-8, catalytic domain (^99Phe˜^262Gly) was amplified with PCR using commercial available Human Bone Marrow cDNA. This was cloned in Escherichia coli expression vector pTrc99AHE inserted with His-tag sequence and enterokinase digestion-site, induced and expressed by IPTG (Isopropyl-β-D-thiogalactopyranoside) and expressed in a insoluble fraction (Than F. Ho, M. Walid Qoronfleh, Robert C. Wahl, Trica A. Pulvino, Karen J. Vavra, Joe Falvo, Tracey M. Banks, Patricia G. Brake and Richard B. Ciccarelli: Gene expression, purification and characterization of recombinant human neutrophil collagenase. Gene 146, (1994) 297-301. It was prepared by the method in a slight modification). Isolation of MMP-8 from an insoluble fraction was carried out by dissolving in modifier (6 M urea) by a usual method and purification with metal chelate chromatography. And then removing modifier (6 M urea) with dialysis and refolding of the enzyme spontaneously gave activated MMP-8.
as §1, §2, §3, §4, §5, §6, §7, §8, §9

| pIC50 (MMP-13) | pIC50 (MMP-2) | pIC50 (MMP-9) | pIC50 (MMP-12) | pIC50 (MMP-8) | SMILES |
| --- | --- | --- | --- | --- | --- |
| 7.79 | < 5.00 | – | – | – | C[C@@H](NS(=O)(=O)c1ccc(-c2ccc(COc3ccc4ccccc4c3)cc2)cc1)C(=O)O [VII-11] |
| 7.82 | 6.78 | < 5.00 | 6.89 | 6.81 | COc1ccc2cc(C#Cc3ccc(-c4ccc(S(=O)(=O)N[C@@H](C(=O)O)C(C)C)cc4)cc3)ccc2c1 [III-20] |
| 7.49 | 6.62 | < 5.00 | 5.96 | < 5.00 | COc1ccc(C(=O)Nc2ccc(-c3ccc(S(=O)(=O)N[C@H](Cc4ccccc4)C(=O)O)cc3)cc2)cc1 [VI-3] |
| 6.65 | < 5.00 | < 5.00 | < 5.00 | 5.11 | O=C(O)[C@@H](CC1CCCCC1)NS(=O)(=O)c1ccc(-c2ccc(C#Cc3ccc4ccccc4c3)cc2)cc1 [III-15] |
| 7.78 | < 5.00 | – | – | – | COc1ccc2cc(COc3ccc(-c4ccc(S(=O)(=O)N[C@@H](C)C(=O)O)cc4)cc3)ccc2c1 [VII-10] |
| 7.33 | < 5.00 | – | – | – | O=C(Nc1ccc(-c2ccc(S(=O)(=O)N[C@@H](Cc3ccccc3)C(=O)O)cc2)cc1)c1cc2ccccc2s1 [VI-48] |
| 7.58 | 5.43 | < 5.00 | 7.02 | 6.85 | CC(C)[C@@H](NS(=O)(=O)c1ccc(-c2ccc(COc3ccc4ccccc4c3)cc2)cc1)C(=O)O [VII-12] |
| 8.41 | 5.27 | < 5.00 | < 5.00 | 6.28 | COc1ccc2cc(C#Cc3ccc(-c4ccc(S(=O)(=O)N[C@H](CC(=O)O)C(=O)O)cc4)cc3)ccc2c1 [III-26] |
| 7.26 | 6.65 | < 5.00 | 6.10 | < 5.00 | COc1ccc(C(=O)Nc2ccc(-c3ccc(S(=O)(=O)N[C@H](C)C(=O)O)cc3)cc2)cc1 [VI-15] |
| 7.67 | < 5.00 | < 5.00 | < 5.00 | < 5.00 | O=C(Nc1ccc(-c2ccc(S(=O)(=O)N[C@H](Cc3ccccc3)C(=O)O)cc2)cc1)c1ccc2ccccc2c1 [VI-10] |
| 7.95 | 6.83 | – | – | – | Cc1nc2cc(C#Cc3ccc(-c4ccc(S(=O)(=O)N[C@@H](C)C(=O)O)cc4)cc3)ccc2s1 [III-54] |
| 8.21 | 6.46 | – | – | – | C[C@H](NS(=O)(=O)c1ccc(-c2ccc(C#Cc3cccc(C(=O)O)c3)cc2)cc1)C(=O)O [III-61] |
| 7.72 | 6.40 | – | – | – | COCc1cccc(C#Cc2ccc(-c3ccc(S(=O)(=O)N[C@@H](C)C(=O)O)cc3)cc2)c1 [III-62] |
| 8.02 | 6.84 | – | – | – | COCc1cccc(C#Cc2ccc(-c3ccc(S(=O)(=O)N[C@H](C(=O)O)C(C)C)cc3)cc2)c1 [III-63] |
| 7.37 | < 5.00 | – | – | – | COc1ccc2cc(C#Cc3ccc(-c4ccc(S(=O)(=O)NC5(C(=O)O)CCCCC5)cc4)cc3)ccc2c1 [III-66] |
| 8.22 | 7.18 | – | – | – | O=C(O)[C@H](CO)NS(=O)(=O)c1ccc(-c2ccc(C#Cc3ccc4[nH]ccc4c3)cc2)cc1 [III-56] |
| 7.96 | 6.31 | – | – | – | O=C(O)[C@H](CO)NS(=O)(=O)c1ccc(-c2ccc(C#Cc3ccc4sccc4c3)cc2)cc1 [III-55] |
| 7.01 | 5.93 | – | – | – | CC(C)Oc1cccc(C#Cc2ccc(-c3ccc(S(=O)(=O)N[C@@H](C)C(=O)O)cc3)cc2)c1 [III-60] |
| 8.10 | 7.04 | – | – | – | CC(C)(C)[C@H](NS(=O)(=O)c1ccc(-c2ccc(OCc3ccc4ccccc4c3)cc2)cc1)C(=O)O [VII-8] |
| 7.68 | 6.58 | – | – | – | COCc1cccc(C#Cc2ccc(-c3ccc(S(=O)(=O)N[C@@H](CC(C)C)C(=O)O)cc3)cc2)c1 [III-64] |
| 7.58 | 6.73 | – | – | – | CSCC[C@H](NS(=O)(=O)c1ccc(-c2ccc(OCc3ccc4ccccc4c3)cc2)cc1)C(=O)O [VII-9] |
| 7.02 | 6.13 | – | – | – | Cc1c(C(=O)Nc2ccc(-c3ccc(S(=O)(=O)N[C@H](Cc4ccccc4)C(=O)O)cc3)cc2)oc2ccccc12 [VI-46] |
| 6.76 | < 5.00 | – | – | – | COc1ccc2cc(C#Cc3ccc(-c4ccc(S(=O)(=O)NC5(C(=O)O)CCCC5)cc4)cc3)ccc2c1 [III-65] |
| 8.04 | 7.24 | – | – | – | COc1ccc2cc(C#Cc3ccc(-c4ccc(S(=O)(=O)N[C@H](Cc5ccc(O)cc5)C(=O)O)cc4)cc3)ccc2c1 [III-46] |
